# Reference: patent publication US8106007B2, “Conjugates of a polypeptide and a pentasaccharide” (N.V. Organon, priority 2005, dated 2012)
# Where two headings read alike, the source gives them in different places. Where a SMILES comes first, the peptide text is derived from it. [ ]: non-standard residue; d: D form. The star is where a group is joined. X1 = CO[C@H]1O[C@H](COS(=O)(=O)O)[C@@H](O[C@@H]2O[C@@H](C(=O)O)[C@@H](O[C@H]3O[C@H](COS(=O)(=O)O)[C@@H](O[C@@H]4O[C@H](C(=O)O)[C@@H](O[C@H]5O[C@H](COS(=O)(=O)O)[C@@H](OCCOCCOCCOCCNC(=O)COCCOCCOCCOCCSC6CC(=O)N(CCCC(=O)*)C6=O)[C@H](OC)[C@H]5OC)[C@H](OC)[C@H]4OC)[C@H](OS(=O)(=O)O)[C@H]3OS(=O)(=O)O)[C@H](OC)[C@H]2OC)[C@H](OS(=O)(=O)O)[C@H]1OS(=O)(=O)O; d(hArg(Et2)) = CCN=C(NCC)NCCCC[C@@H](N)C(=O)O; hArg(Et2) = CCN=C(NCC)NCCCC[C@H](N)C(=O)O; dPhe(4-Cl) = N[C@H](Cc1ccc(Cl)cc1)C(=O)O; d2Nal = N[C@H](Cc1ccc2ccccc2c1)C(=O)O; d3Pal = N[C@H](Cc1cccnc1)C(=O)O
# Tests used:
# [1] = Pharmacokinetics in rat after 125I labeling, not corrected for dehalogenation
# Protocol: (§1) After labeling, the conjugate was purified by gel filtration on Sephadex G25 and anion exchanger HiTrap Q10. […] In order to prevent accumulation of ^125I^− in the thyroid, rats were orally treated with 10 mg/kg potassium iodide prior to administration of compound.
# The correct determination of the fate of ^125I-labeled conjugates might be affected aversely by metabolic intracellular endogenous dehalogenation to give free ^125I^− in circulation.
# [2] = species not given; cited from earlier work
# [3] = rat, in vivo, iv
# Protocol: as §1
# [4] = target: T1, rat ATIII (Rattus norvegicus, UniProt A0A8I5Y9G3); assay: Determination of (poly)peptide-pentasaccharide-ATIII complex in rat plasma (sandwich ELISA); type: binding; conditions: plasma 1 min after i.v. 3.5 nmol/kg in rat
# T1 construct: from tissue; host or cells: plasma of male Wistar rats
# T1 sequence (A0A8I5Y9G3 35-465): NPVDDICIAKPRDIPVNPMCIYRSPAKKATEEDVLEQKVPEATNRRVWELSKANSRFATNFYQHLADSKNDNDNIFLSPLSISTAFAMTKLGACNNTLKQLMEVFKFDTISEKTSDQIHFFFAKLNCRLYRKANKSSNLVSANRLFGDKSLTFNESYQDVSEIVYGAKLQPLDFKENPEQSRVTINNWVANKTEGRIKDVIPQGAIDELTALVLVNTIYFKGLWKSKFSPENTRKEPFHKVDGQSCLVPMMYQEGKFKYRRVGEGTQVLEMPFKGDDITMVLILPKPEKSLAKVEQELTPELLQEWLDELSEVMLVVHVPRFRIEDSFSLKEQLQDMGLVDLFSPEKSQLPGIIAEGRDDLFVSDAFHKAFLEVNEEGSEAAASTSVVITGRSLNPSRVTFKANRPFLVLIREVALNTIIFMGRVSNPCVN
# [5] = rat, in vivo, iv, 3.5 nmol/kg
# From the text: The human Enzyme-Linked Immuno-Sorbent Assay (ELISA) has been developed to measure human insulin in human and rat plasma or buffer system. In this way the ELISA could be used to determine the insulin concentration in plasma samples derived from pharmacokinetic experiments.
# The assay is based on the immunochemical “sandwich” principle using two monoclonal antibodies, i.e. a solid phase bound, capture antibody and a detection antibody which is labeled with horseradish peroxidase (HRP).
# The plate was washed to remove unbound enzyme-labeled antibody and subsequently the 3,3′,5,5′-tetramethylbenzidine/H2O2 substrate solution was added. The reaction was stopped with 0.5 M sulphuric acid and the microtiter plate was read spectrophotometrically at 450 nm. The intensity of colour is directly proportional to the concentration of insulin. Then for each plasma sample the mean concentration (mol/L) of insulin was determined.
# The rats were anaesthetized by inhalation of a mixture of O2/N2O/isoflurane, after which the right jugular vein was cannulated. […] Blood was centrifuged after which the plasma was siphoned off and stored at −20° C. until use. The concentration of the tested compounds in the plasma samples were determined using the human ELISA against a calibration curve which was made of the stock solution of the tested compound itself. The concentration in the samples was expressed in nmol/L and the kinetic parameters were calculated with the noncompartment model of WinNonlin.
# [6] = test system: glucose levels; assay: Glucose suppression test in vivo in rats; design: species or system rat; conditions: i.v. doses of 24 and 48 nmol/kg (FIG. 21, 22)
# Protocol: The animals were fasted overnight (16 hours) prior to the experiment. In the morning blood was sampled from all the rats by cutting a little piece of the tail, after which the blood was dropped on a test strip and the glucose levels were measured with an ACCU-Check Sensor blood glucose monitor (Roche Diagnostics). […] At various time intervals blood samples were taken by removing the crusted blood, after which the glucose content was determined immediately as described.
# [7] = target: hATIII (Homo sapiens, UniProt P01008); assay: Competitive hATIII binding assay using Biomolecular Interaction Analysis (BIA); conditions: for competitive binding potential to ATIII (in words): compared to parent pentasaccharide-spacer residue / parent peptide; for IC50: 15 nmol/L hATIII, compound 9 immobilised on chip, 25° C., read-out: IC50 BIA (competitive ATIII binding)
# hATIII, sequence (P01008 33-464): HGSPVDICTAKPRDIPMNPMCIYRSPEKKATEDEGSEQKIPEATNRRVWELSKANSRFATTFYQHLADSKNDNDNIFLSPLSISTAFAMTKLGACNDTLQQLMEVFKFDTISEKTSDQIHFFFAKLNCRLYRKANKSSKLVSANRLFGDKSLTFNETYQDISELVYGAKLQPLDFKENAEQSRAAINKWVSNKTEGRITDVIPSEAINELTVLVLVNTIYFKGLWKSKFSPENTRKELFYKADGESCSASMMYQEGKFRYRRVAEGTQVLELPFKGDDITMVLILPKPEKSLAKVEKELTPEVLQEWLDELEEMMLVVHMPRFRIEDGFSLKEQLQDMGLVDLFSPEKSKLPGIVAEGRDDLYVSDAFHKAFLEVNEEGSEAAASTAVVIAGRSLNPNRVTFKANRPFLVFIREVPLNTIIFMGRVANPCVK
# Protocol: The sensorgrams and report points were analysed with blanc flow cell subtraction using BIAevaluation 3.2. IC50 values were calculated using graphpad Prism 3.0.
# Principle and aim of the test: Biomolecular Interaction Analysis (BIA) studies the interaction between (bio)molecules by covalent immobilisation of one of the interactants to a sensor chip surface, and injection of the other interactant in the continuous buffer flow over this surface. Binding is registered as a change in refractive index on this surface and is proportional to the molecular weight (Mw) of the interactants.
# To study the interaction between hATIII and pentasaccharide conjugates, compound 9 is covalently coupled to the sensor chip surface. Binding of hATIII to the pentasaccharide generates a strong signal as a resultant of the difference in Mw between the bound (small) pentasaccharide ligand and the (large) hATIII analyte. Preincubated samples containing a constant concentration of hATIII and variable concentrations of free pentasaccharide or conjugate were injected over the surface. Binding of pentasaccharide or conjugate to ATIII during preincubation will result in a reduction of ATIII binding to the immobilised pentasaccharide. This competitive binding assay allows determination of IC50 values for each pentasaccharide conjugate.
# Experimental procedure: Compound 9 is covalently coupled to a CM5 sensor chip by amine coupling at pH 8.5. […] The unreacted hydroxysuccinimide groups are reacted with ethanolamine for 7 min. The surface is regenerated by three short injections of 5 μL 5 mol/L NaCl, at a flow rate of 25 μL/min.
# A concentration series of hATIII was tested to estimate a sensitive concentration for inhibition (at 80% of maximum binding). At a flow rate of 20 μL/min three minute injections were carried out at both blanc and immobilised surface in series at 25° C. A report point is generated at 170 s. The surface is regenerated by a 12 s injection of 5 mol/L NaCl.
# The hATIII injection or report point without pentasaccharide conjugate is set at 100% binding. The relative % binding of the pentasaccharides and the conjugates compared to maximum binding was used to generate a sigmoidal curve (with variable slope) by plotting Log [concentration] vs. % binding from which the IC50 values were derived.
# [8] = in rat, i.v., Chan et al. 1991; cited from earlier work
# [9] = Table 6, rat, i.v., 125I label, not corrected for dehalogenation, n = 3
compound,measurement,setting,value
[125IH] [^125I^−],elimination half-life,"[1]; rats, control, data not shown",192 min
calcitonin,t ½,[2],20 min
"recH insulin: recombinant human insulin (batch SIHR017, from Diosynth)",AUCinf,[3],481 h · cpm/0.1 mL
same,Cl,[3],69.3 mL/min/kg
same,MRT,[3],30 min
same,Vss,[3],2.225 L/kg
same,binding to rat ATIII in circulation (complex detected),[4],cannot form a complex with ATIII
same,Cl,[5],13.3 ± 2 mL/min/kg
same,MRT,[5],0.84 ± 6 min
same,T½ eli,[5],1.98 ± 0.06 min
same,Vss,[5],0.012 ± 0.002 L/kg
insulin detemir,blood glucose lowering activity (comparative example),[6],less pronounced and less prolonged activity
CC[C@H](C)[C@H](NC(=O)[C@H](CCC(N)=O)NC(=O)[C@H](Cc1c[nH]cn1)NC(=O)[C@H](C)N)C(=O)N[C@@H](Cc1ccc(O)cc1)C(=O)N[C@@H](CCC(N)=O)C(=O)N[C@@H](Cc1ccccc1)C(=O)N[C@H](C(=O)N[C@@H](CC(=O)O)C(=O)N[C@@H](CCCCN)C(=O)N[C@@H](CC(=O)O)C(=O)N[C@@H](CCCCN)C(=O)N[C@@H](CC(=O)O)C(=O)N[C@@H](CC(N)=O)C(=O)N[C@H](C(=O)N[C@@H](C)C(=O)N1CCC[C@H]1C(=O)N[C@@H](CCCNC(=N)N)C(=O)N[C@@H](CO)C(=O)N[C@@H](CCCCN)C(=O)N[C@H](C(=O)N[C@@H](CO)C(=O)N1CCC[C@H]1C(=O)N[C@@H](CCC(N)=O)C(=O)NCC(=O)N[C@@H](Cc1ccc(O)cc1)C(N)=O)[C@@H](C)CC)C(C)C)[C@@H](C)O [ADM(27-52)] (H-AHQIYQFTDKDKDNVAPRSKISPQGY-NH2; N-terminus and C-terminus assumed),competitive binding potential to ATIII (in words),[7],no significant competitive binding to ATIII
same,Cl,"[1]; rat, in vivo, iv",112 ± 9 mL/h
same,Vss,"[1]; rat, in vivo, iv",556 ± 48 ml/rat
C[C@@H](O)[C@@H]1NC(=O)[C@H](CCCCN)NC(=O)[C@@H](Cc2c[nH]c3ccccc23)NC(=O)[C@H](Cc2ccccc2)NC(=O)[C@@H](NC(=O)[C@H](N)Cc2ccccc2)CSSC[C@@H](C(=O)N[C@H](CO)[C@@H](C)O)NC1=O [octreotide],t ½,[2],102 min
CCN=C(NCC)NCCCC[C@H](NC(=O)[C@H](CC(C)C)NC(=O)[C@@H](CCCCNC(=NCC)NCC)NC(=O)[C@H](Cc1ccc(O)cc1)NC(=O)[C@H](CO)NC(=O)[C@@H](Cc1cccnc1)NC(=O)[C@@H](Cc1ccc(Cl)cc1)NC(=O)[C@@H](Cc1ccc2ccccc2c1)NC(C)=O)C(=O)N1CCC[C@H]1C(=O)N[C@H](C)C(N)=O [ganirelix] (Ac-[d2Nal][dPhe(4-Cl)][d3Pal]SY[d(hArg(Et2))]L[hArg(Et2)]P[dA]-NH2),competitive binding potential to ATIII (in words),[7],no competitive binding to ATIII
same,T½,[8],84 min
same,t ½,[2],720 min
COC1OC(COS(=O)(=O)O)C(OC2OC(C(=O)O)C(OC3OC(COS(=O)(=O)O)C(OC4OC(C(=O)O)C(OC5OC(COS(=O)(=O)O)C(OCCOCCOCCOCCN)C(OC)C5OC)C(OC)C4OC)C(OS(=O)(=O)O)C3OS(=O)(=O)O)C(OC)C2OC)C(OC)C1OS(=O)(=O)O (stereo not drawn) [Compound 8],IC50,[7],0.058 µM
COC[C@H]1O[C@H](OC)[C@H](OS(=O)(=O)O)[C@@H](OC)[C@@H]1O[C@@H]1O[C@@H](C(=O)O)[C@@H](O[C@H]2O[C@H](COS(=O)(=O)O)[C@@H](O[C@@H]3O[C@H](C(=O)O)[C@@H](O[C@H]4O[C@H](COS(=O)(=O)O)[C@@H](OCCOCCOCCOCCN)[C@H](OC)[C@H]4OC)[C@H](OC)[C@H]3OC)[C@H](OS(=O)(=O)O)[C@H]2OS(=O)(=O)O)[C@H](OC)[C@H]1OC [Compound 7],IC50,[7],0.096 µM
COC1OC(COS(=O)(=O)O)C(OC2OC(C(=O)O)C(OC3OC(COS(=O)(=O)O)C(OC4OC(C(=O)O)C(OC5OC(COS(=O)(=O)O)C(OCCOCCOCCOCCN)C(OC)C5OC)C(OC)C4OC)C(OS(=O)(=O)O)C3OS(=O)(=O)O)C(OC)C2OC)C(OS(=O)(=O)O)C1OS(=O)(=O)O (stereo not drawn) [Compound 9],IC50,[7],0.0055 µM
CC[C@H](C)[C@H](NC(=O)[C@H](CCC(N)=O)NC(=O)[C@H](Cc1c[nH]cn1)NC(=O)[C@H](C)NC(=O)CCCN1C(=O)CC(SCCOCCOCCOCCOCC(=O)NCCOCCOCCOCCO[C@H]2[C@H](OC)[C@@H](OC)[C@@H](O[C@H]3[C@H](OC)[C@@H](OC)[C@H](O[C@H]4[C@H](OS(=O)(=O)O)[C@@H](OS(=O)(=O)O)[C@@H](O[C@H]5[C@H](OC)[C@@H](OC)[C@H](O[C@H]6[C@H](OS(=O)(=O)O)[C@@H](OS(=O)(=O)O)[C@@H](OC)O[C@@H]6COS(=O)(=O)O)O[C@H]5C(=O)O)O[C@@H]4COS(=O)(=O)O)O[C@@H]3C(=O)O)O[C@@H]2COS(=O)(=O)O)C1=O)C(=O)N[C@@H](Cc1ccc(O)cc1)C(=O)N[C@@H](CCC(N)=O)C(=O)N[C@@H](Cc1ccccc1)C(=O)N[C@H](C(=O)N[C@@H](CC(=O)O)C(=O)N[C@@H](CCCCN)C(=O)N[C@@H](CC(=O)O)C(=O)N[C@@H](CCCCN)C(=O)N[C@@H](CC(=O)O)C(=O)N[C@@H](CC(N)=O)C(=O)N[C@H](C(=O)N[C@@H](C)C(=O)N1CCC[C@H]1C(=O)N[C@@H](CCCNC(=N)N)C(=O)N[C@@H](CO)C(=O)N[C@@H](CCCCN)C(=O)N[C@H](C(=O)N[C@@H](CO)C(=O)N1CCC[C@H]1C(=O)N[C@@H](CCC(N)=O)C(=O)NCC(=O)N[C@@H](Cc1ccc(O)cc1)C(N)=O)[C@@H](C)CC)C(C)C)[C@@H](C)O (stereo partly drawn) [Compound 39] (X1-AHQIYQFTDKDKDNVAPRSKISPQGY-NH2),Cl,[1]; [9],5.0 ± 0.1 mL/h
same,Vss,[1]; [9],80 ± 3.3 ml/rat
